In patent US20250388605A1, “HETEROBIFUNCTIONAL COMPOUNDS AND METHODS OF TREATING DISEASE” (Halda Therapeutics OpCo, Inc., priority 2022, published 2025):

Experiments:
progesterone receptor = molecular target: T1, progesterone receptor (Homo sapiens, UniProt P06401); test: PR Human Progesterone NHR Binding (Agonist Radioligand) Assay, [3H]progesterone, T47D cytosolic fractions; settings: 0.5 nM [3H]progesterone, 1 hour at 4° C.
T1 sequence (P06401 679-933 limits assumed): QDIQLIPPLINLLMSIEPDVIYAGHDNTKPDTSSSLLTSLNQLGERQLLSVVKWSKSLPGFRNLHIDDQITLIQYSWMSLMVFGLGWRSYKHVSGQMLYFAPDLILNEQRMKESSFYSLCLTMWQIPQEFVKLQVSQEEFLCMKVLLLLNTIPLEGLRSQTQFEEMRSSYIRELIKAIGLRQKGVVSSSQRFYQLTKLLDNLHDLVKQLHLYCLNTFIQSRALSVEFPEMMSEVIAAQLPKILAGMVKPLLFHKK
Procedure: Exemplary compounds were tested for ability to bind to the progesterone receptor.
Compounds were tested using the PR Human Progesterone NHR Binding (Agonist Radioligand) Assay, Cerep at Eurofins Discovery using a modified version of the protocol from Sarup et al. (Cancer Res 1988; 48:5071-5078). Briefly, cytosolic fractions of T47D cells were incubated with 0.5 nM [^3H]progesterone for 1 hour at 4° C. in the absence or presence of the test compound. Nonspecific binding was determined in the presence of […] promegestone. Reactions were subjected to scintillation counting. Results are expressed as a percent inhibition of the control radioligand specific binding.

T47D cells = test: Cellular Growth Inhibition Assay for T47D Cells (CellTiter-Glo); format: cell-based, human; settings: 72 hours
How it was run: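 GI50 values derive from four-parameter regression of CellTiter-Glo 2.0 luminescence, using zero luminescence as baseline. Human breast cancer T47D cells (3000/well; DMEM, 10% FBS, 0.2 units/mL insulin) were exposed for 72 h to compound dilutions at 0.5% DMSO, with dosing starting 24 h after seeding.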

androgen receptor = molecular target: T2, androgen receptor (Homo sapiens, UniProt P10275); test: Assay for binding affinity to androgen receptor ([3H]methyltrienolone radioligand competition, cell cytosol); settings: binding to the androgen receptor, 1 nM [3H]methyltrienolone, 24 hr at 4° C.
T2 construct: host or cells: unnamed cells, cytosolic fraction
T2 sequence (P10275 1-920): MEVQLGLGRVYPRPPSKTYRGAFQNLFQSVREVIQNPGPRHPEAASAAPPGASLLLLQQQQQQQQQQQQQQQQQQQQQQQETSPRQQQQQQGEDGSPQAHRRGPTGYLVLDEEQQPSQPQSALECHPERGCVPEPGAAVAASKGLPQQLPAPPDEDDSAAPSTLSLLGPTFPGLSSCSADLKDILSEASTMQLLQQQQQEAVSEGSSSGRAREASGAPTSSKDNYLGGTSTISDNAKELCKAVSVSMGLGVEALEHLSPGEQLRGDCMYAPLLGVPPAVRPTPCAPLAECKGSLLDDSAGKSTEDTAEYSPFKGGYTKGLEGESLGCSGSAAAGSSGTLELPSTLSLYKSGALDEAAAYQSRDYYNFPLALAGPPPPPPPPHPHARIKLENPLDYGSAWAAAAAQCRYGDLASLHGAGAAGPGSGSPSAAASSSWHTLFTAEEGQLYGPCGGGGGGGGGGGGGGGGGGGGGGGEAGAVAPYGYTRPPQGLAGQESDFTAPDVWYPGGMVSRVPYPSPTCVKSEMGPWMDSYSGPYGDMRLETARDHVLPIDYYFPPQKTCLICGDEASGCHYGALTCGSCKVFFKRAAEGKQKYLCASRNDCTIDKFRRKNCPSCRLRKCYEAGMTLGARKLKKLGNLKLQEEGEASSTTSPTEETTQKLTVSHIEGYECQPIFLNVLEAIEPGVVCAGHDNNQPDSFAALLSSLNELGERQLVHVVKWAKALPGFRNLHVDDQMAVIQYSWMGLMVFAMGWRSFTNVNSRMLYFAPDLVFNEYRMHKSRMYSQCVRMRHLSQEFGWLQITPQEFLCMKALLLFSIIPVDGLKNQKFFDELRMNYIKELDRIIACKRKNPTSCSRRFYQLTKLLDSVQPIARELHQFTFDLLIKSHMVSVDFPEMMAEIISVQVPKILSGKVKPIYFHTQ
Procedure: Fractions of cell cytosol ([…]) were incubated for 24 hr at 4° C. with 1 nM [^3H]methyltrienolone in the absence or presence of the test compound in a buffer containing 25 mM Hepes-Tris (pH 7.4), 1 mM EDTA, 10 mM Na2MoO4, 2 mM DTT, 5 μM triamcinolone acetonide, and 10% glycerol. Nonspecific binding was determined in the presence of […] testosterone. Following incubation, the samples were filtered rapidly under vacuum through glass fiber filters (GF/B, Packard) presoaked with 0.3% PEI and rinsed several times with ice-cold 50 mM Tris-HCl using a 96-sample cell harvester (Unifilter, Packard). The filters were dried then counted for radioactivity in a scintillation counter (Topcount, Packard) using a scintillation cocktail (Microscint 0, Packard). The results are expressed as a percent inhibition of the control radioligand specific binding. The standard reference compound is testosterone, which is tested in each experiment at several concentrations to obtain a competition curve from which its IC50 is calculated.

VCaP cells = test: Cellular growth inhibition assay for VCaP cells, CellTiter-Glo; format: cell-based, human; settings: 72 hours
How it was run: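 GI50 values come from four-parameter curve fits of luminescence data normalized to a zero baseline. Compound, in medium with 0.5% DMSO, was added one day after plating and left for 72 h before CellTiter-Glo 2.0 addition.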

[1] = test system: T-Rex 293 cell line SC3 cells having increased expression of androgen receptor protein due to exposure to doxycycline; test: Cellular growth inhibition, T-Rex 293 SC3 cells with doxycycline (increased androgen receptor expression), CellTiter-Glo; format: cell-based; settings: T-Rex 293 SC3 cells with 10 ng/mL doxycycline (increased androgen receptor expression), 72 hours, CellTiter-Glo 2.0
How it was run: (§1)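 Growth inhibition is measured in an inducible AR-expressing T-Rex 293 clone, SC3, cultured with or without 10 ng/mL doxycycline in hormone-depleted medium. Test compounds are applied for 72 hours. GI50 values derive from CellTiter-Glo 2.0 signal fitted by four-parameter regression.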

[2] = test system: T-Rex 293 cell line SC3 cells lacking increased expression of androgen receptor protein; test: Cellular growth inhibition, T-Rex 293 SC3 cells without doxycycline (no increased androgen receptor expression), CellTiter-Glo; format: cell-based; settings: T-Rex 293 SC3 cells not exposed to doxycycline (no increased androgen receptor expression), 72 hours
How it was run: as §1

[3] = molecular target: T3, progesterone receptor ligand binding domain (GST-tagged PR LBD) (Homo sapiens, UniProt P06401); test: FP Assay for Binding Affinity to Progesterone Receptor (PolarScreen Progesterone Receptor Competitor Assay Kit); settings: fluorescence polarization, Fluormone tracer, 2 hours at room temperature
T3 construct: purchased Life Technologies A15905 or a15906
T3 sequence (P06401 679-913 limits assumed): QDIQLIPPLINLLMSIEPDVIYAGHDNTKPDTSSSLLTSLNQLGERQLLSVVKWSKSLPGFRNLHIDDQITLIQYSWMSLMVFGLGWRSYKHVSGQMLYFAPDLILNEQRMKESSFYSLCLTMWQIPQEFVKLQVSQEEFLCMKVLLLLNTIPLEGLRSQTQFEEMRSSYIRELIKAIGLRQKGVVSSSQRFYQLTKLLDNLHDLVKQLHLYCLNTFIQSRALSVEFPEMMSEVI
Procedure: Exemplary compounds were tested for ability to bind to the progesterone receptor ligand binding domain (LBD).
Compounds were tested using the PolarScreen™ Progesterone Receptor Competitor Assay Kit (Life Technologies Cat #A15905 or a15906), as per the manufacturer's instructions. Briefly, GST-tagged PR LBD, Fluormone tracer, and compound were mixed and incubated for 2 hours at room temperature in the dark. Following incubation, the plates were spun at 3000×g for 30 seconds, then sealed with an optical adhesive cover, and fluorescence polarization was measured using appropriate excitation and emission filters with an EnVision Plate Reader (Perkin Elmer). Compound concentration vs. mP value were plotted in Prism (GraphPad). A four-parameter non-linear regression curve fit was applied to dose-response data to determine the half-maximal inhibitory concentration (IC50) for each test compound.

SMILES | Ki (progesterone receptor) [nM] | GI50 (T47D cells; Homo sapiens) [nM] | Ki (androgen receptor) [nM] | GI50 (VCaP cells; Homo sapiens) [nM] | IC50 [3] [nM] | GI50 (VCaP cells) [nM] | GI50 (T47D cells) [nM] | GI50 [1] [nM] | GI50 [2] [nM]
Cn1cc(-c2cc(C(C)(C)O)ccc2Oc2ccc(N3CC(CC4CCN(c5cnc(C(=O)N[C@H]6C(C)(C)[C@H](Oc7ccc(C#N)c(C(F)(F)F)c7)C6(C)C)cn5)CC4)C3)cc2)c2cc[nH]c2c1=O [Compound I-373] | 500 to 2500 | < 500 |  |  |  |  |  |  | 
CCS(=O)(=O)c1ccc(Oc2cccc(CCCOC3CC4(C3)CN(c3ccc(C(=O)N[C@H]5C(C)(C)[C@H](Oc6ccc(C#N)c(Cl)c6)C5(C)C)cn3)C4)c2F)c(-c2cn(C)c(=O)c3[nH]ccc23)c1 [Compound I-215] |  | < 500 |  | < 500 | > 2500 |  |  | < 500 | < 500
CN(CCCCc1ccc(Oc2ccc(C(C)(C)O)cc2-c2cn(C)c(=O)c3[nH]ccc23)cc1)c1ncc(C(=O)N[C@H]2C(C)(C)[C@H](Oc3ccc(C#N)c(Cl)c3)C2(C)C)cn1 [Compound I-218] |  | 500 to 1500 |  | 1500 to 3000 | 50 to 500 |  |  | < 500 | 1500 to 3000
Cn1cc(-c2cc(C(C)(C)O)ccc2Oc2cccc(OCCN3CCN(c4ncc5c(n4)CN([C@H]4C(C)(C)[C@H](Oc6ccc(C#N)c(Cl)c6)C4(C)C)C5=O)CC3)c2F)c2cc[nH]c2c1=O [Compound I-227] |  |  |  |  | < 50 | < 500 | < 500 | < 500 | < 500

Now from value to compound, other results behind:

Ki (progesterone receptor) [nM] | GI50 (T47D cells; Homo sapiens) [nM] | Ki (androgen receptor) [nM] | GI50 (VCaP cells; Homo sapiens) [nM] | IC50 [3] [nM] | GI50 (VCaP cells) [nM] | GI50 (T47D cells) [nM] | SMILES | GI50 [1] [nM] | GI50 [2] [nM]
 |  | 50 to 500 | < 500 |  |  |  | CCS(=O)(=O)Nc1ccc(Oc2cccc(OCCOC3CCN(c4cnc(C(=O)N[C@H]5C(C)(C)[C@H](Oc6ccc(C#N)c(Cl)c6)C5(C)C)nc4)CC3)c2)c(-c2cn(C)c(=O)c3[nH]ccc23)c1 [Compound I-73, N-((1r, 3r)-3-(3-chloro-4-cyanophenoxy)-2,2,4,4-tetramethylcyclobutyl)-5-(4-(2-(3-(4-(ethylsulfonamido)-2-(6-methyl-7-oxo-6,7-dihydro-1H-pyrrolo[2,3-c]pyridin-4-yl)phenoxy)phenoxy)ethoxy)piperidin-1-yl)pyrimidine-2-carboxamide] | < 500 | < 500
 |  | < 50 | < 500 |  |  |  | CCS(=O)(=O)Nc1ccc(Oc2cccc(OCCOC3CCN(c4ccc(C(=O)N[C@H]5C(C)(C)[C@H](Oc6ccc(C#N)c(Cl)c6)C5(C)C)cc4)CC3)c2)c(-c2cn(C)c(=O)c3[nH]ccc23)c1 [Compound I-69, N-((1r, 3r)-3-(3-chloro-4-cyanophenoxy)-2,2,4,4-tetramethylcyclobutyl)-4-(4-(2-(3-(4-(ethylsulfonamido)-2-(6-methyl-7-oxo-6,7-dihydro-1H-pyrrolo[2,3-c]pyridin-4-yl)phenoxy)phenoxy)ethoxy)piperidin-1-yl)benzamide] | < 500 | < 500
 |  | 50 to 500 | < 500 |  |  |  | CCS(=O)(=O)Nc1ccc(Oc2cccc(OCCOC3CCN(c4ccc(C(=O)N[C@H]5C(C)(C)[C@H](Oc6ccc(C#N)c(Cl)c6)C5(C)C)nc4)CC3)c2)c(-c2cn(C)c(=O)c3[nH]ccc23)c1 [Compound I-72, N-((1r, 3r)-3-(3-chloro-4-cyanophenoxy)-2,2,4,4-tetramethylcyclobutyl)-5-(4-(2-(3-(4-(ethylsulfonamido)-2-(6-methyl-7-oxo-6,7-dihydro-1H-pyrrolo[2,3-c]pyridin-4-yl)phenoxy)phenoxy)ethoxy)piperidin-1-yl)picolinamide] | < 500 | < 500
